Test results as given in the supplement of paper PMC11451515.

System: SEM cells
Assay: cell viability relative to DMSO control; higher = less cytotoxic
Details: 48 h
Summary of the method: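 Viability was expressed as a per-plate percentage of DMSO wells, with cell-free wells as background. Leukemia cells (NOMO1 or SEM at 500 cells/well, P12-Ichikawa at 1000 cells/well) were adapted for at least four passages in each medium and seeded in 1536-well plates (5 μl). Library compounds in DMSO were pin-dosed over an 11-point threefold series from 47 μM to 0.79 nM, and CellTiter-Glo One luminescence was read after 48 h at 37°C.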

[1] = HPLM + 10% dialyzed FBS, 0.000781 µM
[2] = HPLM + 10% dialyzed FBS, 0.00234 µM
[3] = HPLM + 10% dialyzed FBS, 0.00702 µM
[4] = HPLM + 10% dialyzed FBS, 0.0211 µM
[5] = HPLM + 10% dialyzed FBS, 0.0632 µM
[6] = HPLM + 10% dialyzed FBS, 0.19 µM
[7] = HPLM + 10% dialyzed FBS, 0.569 µM
[8] = HPLM + 10% dialyzed FBS, 1.71 µM
[9] = HPLM + 10% dialyzed FBS, 5.12 µM
[10] = HPLM + 10% dialyzed FBS, 15.4 µM
[11] = HPLM + 10% dialyzed FBS, 46.1 µM
[12] = RPMI 5 mM glucose + 10% FBS, 0.000781 µM
[13] = RPMI 5 mM glucose + 10% FBS, 0.00234 µM
[14] = RPMI 5 mM glucose + 10% FBS, 0.00702 µM
[15] = RPMI 5 mM glucose + 10% FBS, 0.0211 µM
[16] = RPMI 5 mM glucose + 10% FBS, 0.0632 µM
[17] = RPMI 5 mM glucose + 10% FBS, 0.19 µM
[18] = RPMI 5 mM glucose + 10% FBS, 0.569 µM
[19] = RPMI 5 mM glucose + 10% FBS, 1.71 µM
[20] = RPMI 5 mM glucose + 10% FBS, 5.12 µM
[21] = RPMI 5 mM glucose + 10% FBS, 15.4 µM
[22] = RPMI 5 mM glucose + 10% FBS, 46.1 µM
[23] = RPMI 5 mM glucose + 10% dialyzed FBS, 0.000781 µM
[24] = RPMI 5 mM glucose + 10% dialyzed FBS, 0.00234 µM
[25] = RPMI 5 mM glucose + 10% dialyzed FBS, 0.00702 µM
[26] = RPMI 5 mM glucose + 10% dialyzed FBS, 0.0211 µM
[27] = RPMI 5 mM glucose + 10% dialyzed FBS, 0.0632 µM
[28] = RPMI 5 mM glucose + 10% dialyzed FBS, 0.19 µM
[29] = RPMI 5 mM glucose + 10% dialyzed FBS, 0.569 µM
[30] = RPMI 5 mM glucose + 10% dialyzed FBS, 1.71 µM
[31] = RPMI 5 mM glucose + 10% dialyzed FBS, 5.12 µM
[32] = RPMI 5 mM glucose + 10% dialyzed FBS, 15.4 µM
[33] = RPMI 5 mM glucose + 10% dialyzed FBS, 46.1 µM

Structure (SMILES) | cell viability [1] [%] | cell viability [2] [%] | cell viability [3] [%] | cell viability [4] [%] | cell viability [5] [%] | cell viability [6] [%] | cell viability [7] [%] | cell viability [8] [%] | cell viability [9] [%] | cell viability [10] [%] | cell viability [11] [%] | cell viability [12] [%] | cell viability [13] [%] | cell viability [14] [%] | cell viability [15] [%] | cell viability [16] [%] | cell viability [17] [%] | cell viability [18] [%] | cell viability [19] [%] | cell viability [20] [%] | cell viability [21] [%] | cell viability [22] [%] | cell viability [23] [%] | cell viability [24] [%] | cell viability [25] [%] | cell viability [26] [%] | cell viability [27] [%] | cell viability [28] [%] | cell viability [29] [%] | cell viability [30] [%] | cell viability [31] [%] | cell viability [32] [%] | cell viability [33] [%]
COc1c(C)c2c(c(O)c1C/C=C(\C)CCC(=O)OCCN1CCOCC1)C(=O)OC2 | 107 | 110 | 99.8 | 117 | 105 | 121 | 92.8 | 106 | 64.6 | 39.2 | 26.2 | 102 | 113 | 107 | 115 | 116 | 116 | 101 | 95.8 | 60.7 | 38.7 | 26 | 110 | 110 | 101 | 111 | 104 | 117 | 107 | 124 | 86.4 | 56 | 32.6
CC[P](CC)(CC)=[Au][S][C@@H]1O[C@H](COC(C)=O)[C@@H](OC(C)=O)[C@H](OC(C)=O)[C@H]1OC(C)=O | – | – | – | – | – | – | – | – | – | – | – | 106 | 120 | 117 | 122 | 115 | 108 | 89.8 | 5.13 | 4.94 | 3.95 | 3.2 | 111 | 106 | 93.8 | 108 | 106 | 113 | 103 | 5.2 | 5.93 | 4.45 | 2.9
COCCNCCCn1c(C(=O)CF)c(-c2ccc(C)cc2)c2c(N)ncnc21 | 109 | 113 | 105 | 101 | 101 | 105 | 107 | 99.7 | 87 | 71.7 | 56.4 | – | – | – | – | – | – | – | – | – | – | – | 106 | 102 | 111 | 104 | 114 | 103 | 96.7 | 68.2 | 72.5 | 71.9 | 54.5
N[S+](=O)([O-])c1cc2c(cc1Cl)NCN[S+]2(=O)[O-] | 92.5 | 102 | 101 | 94.6 | 104 | 111 | 114 | 109 | 114 | 121 | 107 | 96.2 | 115 | 109 | 104 | 110 | 107 | 114 | 119 | 124 | 116 | 120 | 88.4 | 100 | 112 | 124 | 107 | 124 | 107 | 134 | 117 | 115 | 151
O=C(Nc1cccc2c(=O)cc(-c3nnn[nH]3)oc12)c1ccc(OCCCCc2ccccc2)cc1 | 68.3 | 78.5 | 85.2 | 91.3 | 84.6 | 91.2 | 93 | 96 | 93.8 | 21.4 | 49.2 | 76.6 | 97.5 | 87 | 86.6 | 92.1 | 90.7 | 91.9 | 86.6 | 88.4 | 17.2 | 13.5 | 70.8 | 90.5 | 105 | 96.2 | 99.6 | 92.6 | 102 | 79.9 | 92.8 | 19.2 | 33.2
O=C(O)c1nn(Cc2ccc(Cl)cc2Cl)c2ccccc12 | 93.5 | 90.1 | 95.5 | 96.3 | 86.5 | 54.8 | 68.7 | 92.3 | 84.7 | 76.2 | 54.7 | 124 | 123 | 132 | 130 | 93.3 | 83.6 | 86.2 | 135 | 95.2 | 94.7 | 81 | 96.1 | 89.9 | 89.1 | 77.2 | 76.3 | 46.9 | 69 | 97.5 | 70.1 | 92.7 | 59.6
O=C(O)CCCc1ccc(N(CCCl)CCCl)cc1 | 96.5 | 108 | 112 | 119 | 120 | 129 | 125 | 136 | 120 | 102 | 55.5 | 95.7 | 91.8 | 126 | 122 | 114 | 126 | 121 | 119 | 124 | 101 | 20.2 | 97.4 | 113 | 120 | 111 | 128 | 129 | 133 | 122 | 137 | 113 | 36.8
COC(=O)Nc1nc2cc(Sc3ccccc3)ccc2[nH]1 | 107 | 108 | 119 | 115 | 124 | 130 | 100 | 102 | 22.6 | 24.1 | 24.2 | 119 | 121 | 131 | 129 | 113 | 114 | 93.2 | 91.6 | 15.3 | 18.6 | 18.2 | – | – | – | – | – | – | – | – | – | – | –
CNC(=O)c1cc(COc2nnc(Nc3ccc(Cl)cc3)c3ccoc23)ccn1 | 108 | 112 | 102 | 110 | 121 | 97.9 | 96 | 108 | 102 | 79.9 | 61.2 | 124 | 124 | 110 | 124 | 117 | 127 | 128 | 129 | 97.1 | 95 | 64.7 | 96.6 | 108 | 90.4 | 99 | 95.4 | 104 | 102 | 86.1 | 88.4 | 70.4 | 47.9
